Laboratory results from patent publication US12006330B2, “Substituted macrocyclic compounds and related methods of treatment” (Alkermes, Inc., priority 2020, dated 2024).

Tests used:
MDR1 = assay: MDCK-MDR1 permeability assay; assay type: in vitro ADME; conditions: dog, MDCK-MDR1, MDCK-MDR1 cells; for efflux ratio at 2 h, 3 μM: Papp B→A divided by Papp A→B, read-out: Efflux ratio (ER); for Papp A→B at 2 h, 3 μM: test compound 3 μM, 2 hours at 37 degrees C, apical to basolateral
Outline: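 Receiver and donor compartments were analysed by LC-MS/MS after a 2 h incubation at 37 °C of 3 μM compound in HBSS on MDCK-MDR1 monolayers, run in both directions with Lucifer Yellow (100 μM) as integrity marker. Apparent permeability came from translocation rate, insert area and initial concentration; B→A/A→B Papp gave the efflux ratio, alongside percent recovery.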

[1] = Hepatocytes stability assay (human hepatocytes); assay type: in vitro ADME; conditions: both sexes, human, cryopreserved hepatocytes, cryopreserved human hepatocytes (pool of 50 mixed gender); 1 μM test compound; 1×10^6 cell/mL; 37 degrees C; read-out: CLint (μL/min/million cells)
Outline: (§1)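 Compound at 1 μM (0.1% DMSO) was incubated with cryopreserved pooled human hepatocytes, 1×10^6 cells/mL in Krebs-Henseleit buffer, at 37 °C, sampled up to 240 min. Parent depletion by LC-MS/MS; half-life from first-order decay gave CLint, scaled to hepatic clearance by well-stirred model (fu assumed 1) and extraction ratio.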

human hepatocytes = assay: Hepatocytes stability assay (human hepatocytes); assay type: in vitro ADME; conditions: human hepatocytes; scaled hepatic clearance divided by liver blood flow (well-stirred model, fu assumed unity)
Outline: as §1

Sprague-Dawley rats = assay: Assessment of wake promotion in Sprague-Dawley rats (EEG/EMG); assay type: in vivo, rat; conditions: male Sprague-Dawley rats, 3 mpk, dosed at ZT5, 6-hour post-dose period
Procedure: Wake promotion was assessed using electroencephalography (EEG) and electromyography (EMG) in adult male Sprague-Dawley rats. All rats (Charles River Laboratories, Raleigh, NC, USA) were intraperitoneally implanted with telemetry devices (F50-EEE, Data Sciences International Inc., MN, USA) under isoflurane anesthesia. For EEG, stainless steel screws were implanted over frontal cortex and parietal cortex, and reference screws were placed over cerebellum. Additionally, an electrode was placed in neck muscle for EMG. Rats were given carprofen post-surgery and underwent a 7 to 10-day recovery period. Rats habituated to the experimental room for 7 days and were maintained on a 12-hour light-dark cycle.
EEG and EMG data were recorded using the DSI telemetry system and Ponemah software (Data Sciences International Inc., MN, USA). Sleep-wake stages were scored both manually and with Somnivore, a supervised machine learning software platform, in 10 second epochs. Records were visually inspected as needed post-processing.
All test compounds were dissolved in 5% DMSO and suspended in 95% saline with 0.5% methylcellulose and 0.5% tween. […] Unless otherwise indicated, all compounds were dosed orally. Recordings for each rat were initiated immediately after dosing and lasted for 6 hours post-dose.
Two key endpoints include wakefulness time and cortical activation time. Wakefulness time is derived from the sleep-wake stage analysis. Cortical activation time is based on the duration in which frontal gamma oscillatory activity (30-100 Hz), a key feature of wakefulness, was elevated relative to a pre-treatment baseline. Mean cortical activation time was computed relative to vehicle treatment for the 6-hour post-dose period.

Structure (SMILES) | efflux ratio at 2 h, 3 μM (MDR1) | Papp A→B at 2 h, 3 μM (MDR1) [×10⁻⁶ cm/s] | hepatocyte CLint at 1 μM [1] [µL/min/1e6 cells] | Extraction Ratio (ER) (human hepatocytes) | Mean cortical activation time (% vehicle treatment) (Sprague-Dawley rats; PO) | Mean cortical activation time (% vehicle treatment) (Sprague-Dawley rats; SC)
CC(C)S(=O)(=O)N[C@H]1CCN2C(=O)COc3c(F)cc(F)cc3[C@H]3CC[C@H](CC3)OC[C@@H]12 [Compound 29] | 2.5 | 6.4 | 15 | 0.70 | 214.61 | –
CC(C)(O)C(=O)N1CC[C@H](NS(C)(=O)=O)[C@@H]1Cc1cccc(-c2cc(F)cc(F)c2)c1F [Reference Compound B, N-((2S,3S)-1-(2-hydroxy-2-methylpropanoy1)-2-((2,3′,5′-trifluorobipheny1-3-yl)methyl)pyrrolidin-3-yl)methanesulfonamide, reference compound] | > 100 | 0.21 | 1.5 | 0.19 | 110.4 | –
COC(=O)N1CCC[C@H](NS(C)(=O)=O)[C@@H]1CO[C@H]1CC[C@@H](c2ccccc2)CC1 [Reference Compound A, methyl (2R,3S)-3-((methylsulfonyl)amino)-2-(((cis-4-phenylcyclohexyl)oxy)methyl)-piperidine-l-carboxylate, reference compound] | 5.9 | 5 | 76 | 0.92 | – | 118.75
Cc1ncnc2c1[C@H]1CC[C@H](CC1)OCC1[C@@H](NS(C)(=O)=O)CCCN1C(=O)CO2 (stereo in doubt) [Compound 27] | 48 | – | < 1.9 | <0.22 | 138.57 | –
Cc1cccc2c1[C@H]1CC[C@H](CC1)OC[C@H]1[C@@H](NS(C)(=O)=O)CCN1C(=O)CO2 [Compound 20] | 6.4 | 6.8 | 27 | 0.80 | 154.26 | –

More lines, main results first:

efflux ratio at 2 h, 3 μM (MDR1) | Papp A→B at 2 h, 3 μM (MDR1) [×10⁻⁶ cm/s] | hepatocyte CLint at 1 μM [1] [µL/min/1e6 cells] | Extraction Ratio (ER) (human hepatocytes) | Structure (SMILES) | Mean cortical activation time (% vehicle treatment) (Sprague-Dawley rats; PO) | Mean cortical activation time (% vehicle treatment) (Sprague-Dawley rats; SC)
1.3 | 12 | 2.5 | 0.274 | O=C1COc2ccccc2[C@H]2CC[C@H](CC2)OCC2[C@@H](NS(=O)(=O)C(F)(F)F)CCN12 (stereo in doubt) [Compound 100] | 265.17 | –
57 | 0.52 | < 1.4 | <0.22 | O=C1COc2nccnc2[C@H]2CC[C@H](CC2)OCC2[C@@H](NS(=O)(=O)C(F)(F)F)CCCN12 (stereo in doubt) [Compound 98] | 84.91 | –
47 | 0.96 | 4.8 | 0.42 | O=C1COc2ncccc2[C@H]2CC[C@H](CC2)OCC2[C@@H](NS(=O)(=O)C(F)(F)F)CCCN12 (stereo in doubt) [Compound 91] | 151.55 | –
4.7 | 8.7 | < 1.9 | <0.22 | Cc1ccnc2c1[C@H]1CC[C@H](CC1)OCC1[C@@H](NS(=O)(=O)C(F)(F)F)CCN1C(=O)CO2 (stereo in doubt) [Compound 94] | 152.81 | –
52 | 0.46 | < 1.4 | <0.22 | Cc1ncnc2c1[C@H]1CC[C@H](CC1)OCC1[C@@H](NS(=O)(=O)C(F)(F)F)CCCN1C(=O)CO2 (stereo in doubt) [Compound 99] | 97.17 | –
15 | 2 | 3.3 | 0.33 | O=C1COc2cccc(F)c2[C@H]2CC[C@H](CC2)OCC2[C@@H](NS(=O)(=O)C(F)(F)F)CCCN12 (stereo in doubt) [Compound 95] | 312.26 | –
